The record followed here is US11110088B2, “Imidazopyrazine inhibitors of Bruton's tyrosine kinase” (Acerta Pharma B.V., priority 2015, dated 2021).

Assay [1] addresses Txk (Homo sapiens (Human), UniProt P42681). Description: TXK enzyme activity, IMAP assay. The format is biochemical. The settings on record: 60 min pre-incubation; 1 μM ATP. On the procedure:
TXK enzyme activity is measured using the IMAP (immobilized metal ion affinity-based fluorescence polarization) assay as outlined below.
TXK enzyme (Millipore #14-761), is diluted to 2.5 U/mL in KR buffer (10 mM Tris-HCl, 10 mM MgCl2, 0.01% Tween-20, 0.1% NaN3, 1 mM DTT, 2 mM MnCl2, pH 7.5).
(§1) Serial dilutions log 10 from 2 mM to 63.2 nM of test compounds are made in 100% DMSO. The dilutions in DMSO are then diluted 50-fold in KR-buffer. Final compound concentration range in the assay ranged from 10 μM to 0.316 nM.
The assay is performed as follows: 5 μL/well of test compound in KR buffer (final DMSO concentration in the assay is 1%) is mixed with 5 μL/well of 2.5 U/mL TXK enzyme (final concentration in the assay is 0.625 U/mL (4.4 nM)). Test compounds and TXK enzyme are pre-incubated 60 minutes at room temperature, before adding 5 μL/well of 200 nM Fluorescin labeled substrate peptide (Blk/Lyntide substrate #R7188, Molecular Devices) in KR-buffer. Final peptide substrate concentration in assay is 50 nM. […] Following incubation for 2 hours at room temperature the enzyme reaction is stopped by adding 40 μL/well IMAP Progressive Binding Solution (according to suppliers (Molecular Devices) protocol using 60% 1× buffer A and 40% 1× buffer B with 800× diluted beads (Progressive Binding System, Molecular Devices). After 60 min incubation at room temperature in the dark the FP signal is read. Fluorescence at 535 nm is measured using parallel and perpendicular filters to determine differences in rotation due to binding of the phosphorylated substrate peptide to the beads. Values are calculated as percentage of the difference in readout (ΔmPi) of the controls with and without ATP. IC50 values are determined by curve fitting of the experimental results using Activity Base.

Assay [2] concerns the target ITK (Homo sapiens (Human), UniProt Q08881). Description: ITK enzyme activity, IMAP assay. The class given is biochemical. The settings on record: 60 min pre-incubation; 5 μM ATP. The method, then:
ITK enzyme activity is measured using the IMAP (immobilized metal ion affinity-based fluorescence polarization) assay as outlined below.
ITK enzyme (Millipore #14-660M) is diluted to 0.2 U/mL in KR buffer (10 mM Tris-HCl, 10 mM MgCl2, 0.01% Tween-20, 0.1% NaN3, 1 mM DTT, 2 mM MnCl2, pH 7.5)
(§2) The dilutions in DMSO are then diluted 50-fold in KR-buffer.
Test compounds and ITK enzyme are pre-incubated 60 minutes at room temperature, before adding 5 μL/well of 200 nM Fluorescin labeled substrate peptide (Blk/Lyntide substrate #R8124, Molecular Devices) in KR-buffer. Final peptide substrate concentration in assay is 50 nM. […] IC50 values are determined by curve fitting of the experimental results using Activity Base.

In assay [3] the target is Bmx (Homo sapiens (Human), UniProt P51813). In words: BMX enzyme activity, IMAP assay. The class given is biochemical. The note with it: 60 min pre-incubation; 5 μM ATP. The method, then: BMX enzyme activity is measured using the IMAP (immobilized metal ion affinity-based fluorescence polarization) assay as outlined below.
as §2
Test compounds and BMX enzyme are pre-incubated 60 minutes at room temperature, before adding 5 μL/well of 200 nM Fluorescin labeled substrate peptide (Blk/Lyntide substrate #R7188, Molecular Devices) in KR-buffer. Final peptide substrate concentration in assay is 50 nM. […] IC50 values are determined by curve fitting of the experimental results using Activity Base.

The test system of assay [4] is CD69 in CD19+ B cells of anti-IgM stimulated PBMCs. In words: Human peripheral blood mononuclear cell (PBMC) CD69 assay. The class given is cell-based. The note with it: Homo sapiens, PBMC, 2 h compound, then anti-IgM 18 hours. The method, then:
Example 44—Human Peripheral Blood Mononuclear Cell (PBMC) CD69 Assay
Whole blood was collected in heparin-coated Vacutainer tubes (BD Biosciences, San Jose, Calif.) and used for isolation of PBMCs using Ficoll-Hypaque (Pharmacia, Uppsala, Sweden). Isolated PBMCs were cryopreserved in 90% FCS/10% DMSO until later use.
Cells from cryogenic storage were thawed in a 37° C. water bath, diluted with RPMI/1% FCS, washed 2 times, and then plated at 1×10^5 cells per well in RPMI/10% FCS.
Serial dilutions log 10 from 10 mM to 316 nM of test compounds are made in 100% DMSO, followed by a 100-fold dilution into RPMI/1% FCS. For each well, 10 μL was then transferred to the deep well plate containing 90 μL of PBMC cells. Final compound concentration range in the assay ranged from 10 μM to 0.316 nM, with a final DMSO concentration of 0.1%. PBMCs are then incubated for 2 h at 37° C. in presence or absence of test compounds, prior to stimulation with goat F(ab′)2 anti-IgM (Southern Biotech, #2022-14, final concentration in assay 5 μg/mL) for 18 hours.
Following stimulation with anti-IgM, PBMCs were incubated on ice for 30 min with anti-CD69-FITC, anti-CD19-BV421 (BD Biosciences #555530 and #562440, respectively) and 7AAD (Life Technologies #A1310). Flow cytometry was performed and fluorescence values were obtained from the CD69-FITC channel in CD19+ gated life B cells. ECso values are determined by curve fitting of the experimental results using GraphPad Prism.

Assay [5] concerns the target BTK (Homo sapiens (Human), UniProt Q06187). Description: BTK enzyme activity, IMAP assay. The settings on record: 60 min pre-incubation; 5 μM ATP. The format is biochemical. On the procedure:
BTK enzyme activity is measured using the IMAP (immobilized metal ion affinity-based fluorescence polarization) assay as outlined below.
BTK enzyme (His-BTK (Millipore catalog #14-552)), is diluted to 0.4 U/mL in KR buffer (10 mM Tris-HCl, 10 mM MgCl2, 0.01% Tween-20, 0.05% NaN3, 1 mM DTT, 2 mM MnCl2, pH 7.2).
as §1
The assay is performed as follows: 5 μL/well of test compound in KR buffer (final DMSO concentration in the assay is 1%) is mixed with 5 µl/well of 0.4 U/mL BTK enzyme (final concentration in the assay is 0.1 U/mL). Test compounds and BTK enzyme are pre-incubated 60 minutes at room temperature, before adding 5 μL/well of 200 nM Fluorescin labeled substrate peptide (Blk/Lyntide substrate, e.g. #R7188/#R7233, Molecular Devices) in KR-buffer. Final peptide substrate concentration in assay is 50 nM. […] Following incubation for 2 hours at room temperature the enzyme reaction is stopped by adding 40 μL/well IMAP Progressive Binding Solution (according to suppliers (Molecular Devices) protocol using 75% 1× buffer A and 25% 1× buffer B with 1:600 Progressive Binding Solution). After 60 min incubation at room temperature in the dark the FP signal is read. Fluorescence at 535 nm is measured using parallel and perpendicular filters to determine differences in rotation due to binding of the phosphorylated substrate peptide to the beads. Values are calculated as percentage of the difference in readout (ΔmPi) of the controls with and without ATP. IC50 values are determined by curve fitting of the experimental results using Activity Base.

The target of assay [6] is EGFR WT (Homo sapiens (Human), UniProt P00533). In words: EGFR enzyme activity, IMAP assay. The class given is biochemical. The note with it: 60 min pre-incubation; 2 μM ATP. The method, then:
EGFR enzyme activity is measured using the IMAP (immobilized metal ion affinity-based fluorescence polarization) assay as outlined below.
EGFR enzyme (Invitrogen catalog #PR7295B), is diluted to 2.5 μg/mL in KR buffer (10 mM Tris-HCl, 10 mM MgCl2, 0.01% Tween-20, 0.1% NaN3, 1 mM DTT, 2 mM MnCl2, pH 7.5).
Final peptide substrate concentration in assay is 50 nM. […] Following incubation for 60 min at room temperature in the dark the enzyme reaction is stopped by adding 40 μL/well IMAP Progressive Binding Solution (according to suppliers (Molecular Devices) protocol using 20% 1× buffer A and 80% 1× buffer B with 600× diluted beads). After 60 min incubation at room temperature in the dark the FP signal is read. […] Values are calculated as percentage of the difference in readout (ΔmPi) of the controls with and without ATP. IC50 values are determined by curve fitting of the experimental results using GraphPad Prism6.

Assay [7] addresses ErbB2 (Homo sapiens (Human), UniProt P04626). In words: ErbB2 Z-LYTE assay (Life Technologies). The format is biochemical. The note with it: Z-LYTE assay performed at Life Technologies.
Assay [8] deals with Jak3 (Homo sapiens (Human), UniProt P52333). Description: Jak3 Z-LYTE assay (Life Technologies). The class given is biochemical. The settings on record: Z-LYTE assay performed at Life Technologies.
For assay [9], the target named is Blk (Homo sapiens (Human), UniProt P51451). Description: Blk Z-LYTE assay (Life Technologies). The format is biochemical. The settings on record: Z-LYTE assay performed at Life Technologies.
Assay [10] concerns the target ErbB4 (Homo sapiens (Human), UniProt Q15303). In words: ErbB4 Z-LYTE assay (Life Technologies). The format is biochemical. The note with it: Z-LYTE assay performed at Life Technologies.

Each structure is given as a SMILES string. Where only a bound is given, the exact number is not on record here.

ITK, sequence (Q08881 whole entry): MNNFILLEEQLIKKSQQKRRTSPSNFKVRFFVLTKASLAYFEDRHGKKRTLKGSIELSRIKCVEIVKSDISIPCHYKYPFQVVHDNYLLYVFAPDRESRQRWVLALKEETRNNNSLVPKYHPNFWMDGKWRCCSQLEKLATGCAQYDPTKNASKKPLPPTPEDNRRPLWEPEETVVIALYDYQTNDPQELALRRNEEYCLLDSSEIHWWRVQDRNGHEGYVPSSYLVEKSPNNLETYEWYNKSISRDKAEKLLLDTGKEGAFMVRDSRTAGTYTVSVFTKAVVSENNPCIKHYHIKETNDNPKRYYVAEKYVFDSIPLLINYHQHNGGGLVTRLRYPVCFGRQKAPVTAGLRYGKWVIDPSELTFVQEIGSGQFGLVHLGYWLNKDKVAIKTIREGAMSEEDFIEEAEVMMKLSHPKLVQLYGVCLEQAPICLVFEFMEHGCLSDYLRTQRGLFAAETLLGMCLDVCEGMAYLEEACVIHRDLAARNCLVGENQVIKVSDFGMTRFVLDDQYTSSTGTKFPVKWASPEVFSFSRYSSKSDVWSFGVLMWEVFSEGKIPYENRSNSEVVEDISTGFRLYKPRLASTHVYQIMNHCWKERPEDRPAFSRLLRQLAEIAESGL
Bmx, sequence (P51813 whole entry): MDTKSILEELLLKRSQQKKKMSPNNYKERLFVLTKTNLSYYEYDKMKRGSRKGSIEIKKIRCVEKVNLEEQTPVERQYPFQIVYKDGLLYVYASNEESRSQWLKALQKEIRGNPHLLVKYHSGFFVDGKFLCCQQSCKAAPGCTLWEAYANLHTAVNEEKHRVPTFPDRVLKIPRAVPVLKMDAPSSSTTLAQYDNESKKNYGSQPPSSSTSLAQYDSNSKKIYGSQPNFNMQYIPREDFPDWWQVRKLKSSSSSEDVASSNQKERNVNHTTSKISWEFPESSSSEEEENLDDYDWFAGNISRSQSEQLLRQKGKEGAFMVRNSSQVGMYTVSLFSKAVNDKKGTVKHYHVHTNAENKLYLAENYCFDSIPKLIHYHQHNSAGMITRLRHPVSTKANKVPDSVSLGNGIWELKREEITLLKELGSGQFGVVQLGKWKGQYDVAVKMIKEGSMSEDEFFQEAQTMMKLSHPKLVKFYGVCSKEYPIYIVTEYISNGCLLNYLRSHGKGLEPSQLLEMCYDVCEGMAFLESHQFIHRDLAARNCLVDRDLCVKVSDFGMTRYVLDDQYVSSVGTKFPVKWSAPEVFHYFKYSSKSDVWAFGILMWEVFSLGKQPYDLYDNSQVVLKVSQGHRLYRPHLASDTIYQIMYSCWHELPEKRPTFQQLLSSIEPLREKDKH
BTK, sequence (Q06187 whole entry): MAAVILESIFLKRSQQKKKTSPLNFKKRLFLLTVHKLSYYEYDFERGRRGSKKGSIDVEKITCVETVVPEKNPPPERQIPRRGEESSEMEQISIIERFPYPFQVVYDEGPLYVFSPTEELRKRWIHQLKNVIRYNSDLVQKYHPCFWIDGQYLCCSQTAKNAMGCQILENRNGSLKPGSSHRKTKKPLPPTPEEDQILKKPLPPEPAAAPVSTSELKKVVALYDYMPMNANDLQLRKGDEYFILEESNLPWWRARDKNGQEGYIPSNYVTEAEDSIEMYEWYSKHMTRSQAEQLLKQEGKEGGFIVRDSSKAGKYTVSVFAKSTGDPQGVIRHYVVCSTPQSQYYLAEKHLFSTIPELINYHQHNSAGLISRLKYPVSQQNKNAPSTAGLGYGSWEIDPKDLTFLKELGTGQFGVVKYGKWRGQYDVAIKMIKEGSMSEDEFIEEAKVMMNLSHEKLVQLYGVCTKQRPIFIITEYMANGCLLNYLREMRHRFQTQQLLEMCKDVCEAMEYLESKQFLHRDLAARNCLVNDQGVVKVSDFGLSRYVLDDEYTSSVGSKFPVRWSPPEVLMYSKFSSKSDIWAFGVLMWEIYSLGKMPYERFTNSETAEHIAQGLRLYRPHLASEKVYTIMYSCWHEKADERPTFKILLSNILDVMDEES
Txk, sequence (P42681 whole entry): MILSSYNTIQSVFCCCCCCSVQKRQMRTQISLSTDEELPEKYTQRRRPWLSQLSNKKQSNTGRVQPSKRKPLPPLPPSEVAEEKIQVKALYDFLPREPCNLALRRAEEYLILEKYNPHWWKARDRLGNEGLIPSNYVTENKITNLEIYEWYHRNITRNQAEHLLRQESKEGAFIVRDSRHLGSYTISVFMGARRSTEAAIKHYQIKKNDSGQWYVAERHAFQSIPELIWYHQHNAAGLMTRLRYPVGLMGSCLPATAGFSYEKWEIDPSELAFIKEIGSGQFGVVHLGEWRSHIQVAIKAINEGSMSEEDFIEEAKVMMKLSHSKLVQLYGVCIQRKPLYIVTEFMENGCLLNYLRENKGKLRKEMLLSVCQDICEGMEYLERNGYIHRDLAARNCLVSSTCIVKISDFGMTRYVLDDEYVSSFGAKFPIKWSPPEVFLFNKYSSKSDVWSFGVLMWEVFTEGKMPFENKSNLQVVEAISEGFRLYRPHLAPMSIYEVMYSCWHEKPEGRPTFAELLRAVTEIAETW
EGFR WT, sequence (P00533 25-1210): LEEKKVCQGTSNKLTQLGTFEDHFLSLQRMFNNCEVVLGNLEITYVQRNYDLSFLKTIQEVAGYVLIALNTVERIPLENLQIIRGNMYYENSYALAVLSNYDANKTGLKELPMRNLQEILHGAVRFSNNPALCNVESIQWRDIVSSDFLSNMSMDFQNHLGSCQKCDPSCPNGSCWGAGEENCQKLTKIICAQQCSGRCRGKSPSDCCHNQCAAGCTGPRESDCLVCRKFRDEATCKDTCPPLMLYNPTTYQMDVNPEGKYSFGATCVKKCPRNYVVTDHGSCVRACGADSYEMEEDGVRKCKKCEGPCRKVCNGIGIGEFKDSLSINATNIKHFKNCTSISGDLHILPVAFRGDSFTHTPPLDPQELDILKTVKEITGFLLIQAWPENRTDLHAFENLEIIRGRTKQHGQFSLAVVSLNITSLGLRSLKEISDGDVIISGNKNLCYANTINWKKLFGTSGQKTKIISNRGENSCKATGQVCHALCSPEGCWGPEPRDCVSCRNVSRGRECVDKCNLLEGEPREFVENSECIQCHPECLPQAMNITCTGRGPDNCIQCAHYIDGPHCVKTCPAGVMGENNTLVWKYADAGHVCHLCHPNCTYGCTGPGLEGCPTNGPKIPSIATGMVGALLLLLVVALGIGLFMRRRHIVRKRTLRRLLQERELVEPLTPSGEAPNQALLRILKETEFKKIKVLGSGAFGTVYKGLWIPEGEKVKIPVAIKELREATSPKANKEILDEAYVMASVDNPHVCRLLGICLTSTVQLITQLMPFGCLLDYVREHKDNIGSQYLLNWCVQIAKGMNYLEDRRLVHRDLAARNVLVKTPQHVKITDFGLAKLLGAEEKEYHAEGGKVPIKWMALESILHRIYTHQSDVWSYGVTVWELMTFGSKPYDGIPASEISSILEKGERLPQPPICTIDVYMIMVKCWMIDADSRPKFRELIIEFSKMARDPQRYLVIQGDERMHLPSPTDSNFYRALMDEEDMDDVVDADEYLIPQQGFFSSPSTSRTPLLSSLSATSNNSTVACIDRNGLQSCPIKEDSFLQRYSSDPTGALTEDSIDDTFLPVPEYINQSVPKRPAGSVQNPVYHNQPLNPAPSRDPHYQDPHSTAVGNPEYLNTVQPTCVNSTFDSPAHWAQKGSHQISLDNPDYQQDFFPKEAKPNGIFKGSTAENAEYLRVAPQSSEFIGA
ErbB4, sequence (Q15303 26-1308): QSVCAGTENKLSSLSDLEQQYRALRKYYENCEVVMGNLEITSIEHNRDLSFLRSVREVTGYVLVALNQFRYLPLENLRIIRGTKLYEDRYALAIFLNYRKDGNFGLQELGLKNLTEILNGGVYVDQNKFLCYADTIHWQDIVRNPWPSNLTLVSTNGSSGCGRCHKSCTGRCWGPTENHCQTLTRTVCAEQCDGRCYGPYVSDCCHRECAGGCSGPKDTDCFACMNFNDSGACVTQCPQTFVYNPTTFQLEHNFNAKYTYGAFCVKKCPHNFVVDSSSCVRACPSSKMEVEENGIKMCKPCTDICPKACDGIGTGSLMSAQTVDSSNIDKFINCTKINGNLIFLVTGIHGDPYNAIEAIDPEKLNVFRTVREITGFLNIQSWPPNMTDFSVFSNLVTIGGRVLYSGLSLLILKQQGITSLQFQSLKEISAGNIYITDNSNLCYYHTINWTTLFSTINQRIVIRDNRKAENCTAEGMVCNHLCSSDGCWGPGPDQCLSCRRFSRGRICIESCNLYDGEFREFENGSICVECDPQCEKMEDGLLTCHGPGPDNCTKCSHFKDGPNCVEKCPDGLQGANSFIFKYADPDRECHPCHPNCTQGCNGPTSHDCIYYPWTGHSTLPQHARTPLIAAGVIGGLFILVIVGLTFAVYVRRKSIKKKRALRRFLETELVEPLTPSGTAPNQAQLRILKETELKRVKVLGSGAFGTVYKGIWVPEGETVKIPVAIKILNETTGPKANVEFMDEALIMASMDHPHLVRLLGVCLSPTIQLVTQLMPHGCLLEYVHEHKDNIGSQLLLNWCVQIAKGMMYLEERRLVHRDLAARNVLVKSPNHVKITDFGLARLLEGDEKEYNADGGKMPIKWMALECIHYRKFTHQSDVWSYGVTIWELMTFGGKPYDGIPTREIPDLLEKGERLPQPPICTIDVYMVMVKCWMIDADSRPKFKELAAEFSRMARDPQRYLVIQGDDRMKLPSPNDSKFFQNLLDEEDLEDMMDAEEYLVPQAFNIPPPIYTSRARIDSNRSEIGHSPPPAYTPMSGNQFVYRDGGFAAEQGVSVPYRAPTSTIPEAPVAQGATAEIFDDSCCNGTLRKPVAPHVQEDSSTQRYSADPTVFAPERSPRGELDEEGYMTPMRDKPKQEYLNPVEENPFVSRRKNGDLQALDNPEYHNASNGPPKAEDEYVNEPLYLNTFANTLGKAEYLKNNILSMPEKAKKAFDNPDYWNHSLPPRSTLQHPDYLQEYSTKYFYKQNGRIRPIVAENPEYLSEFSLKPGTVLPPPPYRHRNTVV

In the case of `CC#CC(=O)N[C@@H](C)c1nc(-c2ccc(C(=O)Nc3ccccn3)c(OC)c2)c2c(N)nccn12`, the 50% inhibitory concentration (IC50) (in general, the point on the concentration scale where inhibition reaches its midpoint) in assay [1] is 2 nM; in [2], over 1000 nM; in assay [3], 3.1 nM; in assay [5], 1.6 nM; in [6], over 1000 nM. Also, a half-maximal effect in assay [4] (EC50) was put at 1.3 nM.
Take `CC#CC(=O)N1CCC[C@H]1c1nc(-c2ccc(C(=O)Nc3cc(C(F)(F)F)ccn3)c(OC)c2)c2c(N)nccn12`: the half-maximal inhibitory concentration (IC50) was 16 nM in [1]; over 1000 nM in [2]; 14 nM in assay [3]; over 1000 nM in assay [7]; over 1000 nM in assay [8]; 2.5 nM in assay [5]. Also, the IC50 in assay [6] is over 1000 nM; in assay [9], 489 nM; in [10] it was 99 nM. In addition, the EC50 (usually the concentration at which the effect is half-maximal) in assay [4] is 3.7 nM.
Regarding `CC#CC(=O)N(C)[C@@H](C)c1nc(-c2ccc(C(=O)Nc3cc(C(F)(F)F)ccn3)c(OC)c2)c2c(N)nccn12`, the concentration for half-maximal inhibition (IC50) in assay [1] is 13 nM; in [2], over 1000 nM; in assay [3], 7.9 nM; in [5], 3.5 nM; in [6] it was over 1000 nM. Further, in assay [4], the EC50 stood at 2.7 nM.
